Literature values as cited in US6620425B1, “Food supplements and methods comprising lipoic acid and creatine” (Muscletech Research and Development Inc., priority 1998, dated 2003).

Key:
[1] = insulin-sensitive individuals

Row | Compound | increase of the metabolic clearance rate of glucose (in diabetics) [%] | the body's utilization of blood sugar (in type II diabetics) | improvement of glucose tolerance [1]
1 | O=C(O)CCCCC1CCSS1 (stereo not drawn) [lipoic acid, 6,8-dithio octanoic acid] | 50 | significantly increase | –
2 | chromium | – | – | up to 50%
